From article PMC4210147, “Sequence-Specific Dimerization of a Transmembrane Helix in Amphipol A8-35” (PLoS ONE, 2014)

Tests used:
human GpA TM domain [1] = biological target: T1, human GpA TM domain (Homo sapiens, UniProt P02724); assay: Steady-state FRET, GpA TM helix dimerization in A8-35; type: binding; settings: n = 3; for dimer fraction (in words): pH 7.4, 25°C
T1 construct: purchased Peptide Specialty Laboratories, Heidelberg, Germany; host or cells: chemical synthesis (custom peptide)
T1 sequence (P02724 88-120 limits assumed) 1: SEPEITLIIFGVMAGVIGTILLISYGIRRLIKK
T1 sequence (P02724 88-120 limits assumed) 2: T1 sequence (P02724 88-120 limits assumed) 1
Excerpt: Peptides corresponding to residues 69–101 of the human GpA TM domain ([…]) were custom-synthesized and labeled at the N-terminus with either the donor or the acceptor dyes fluorescein (FL) and 5-6-carboxyrhodamine (TAMRA), respectively (Peptide Specialty Laboratories, Heidelberg, Germany). The purity of the labelled peptides was confirmed by high-performance liquid chromatography (HPLC) and mass spectrometry. Based on this, the labeled peptides used in this study were>95% pure. Peptides were dissolved in 2,2,2-trifluoroethanol purchased from Sigma-Aldrich (Munich, Germany). APol A8-35 was purchased from Affymetrix (Santa Clara, USA) and sodium dodecyl sulfate (SDS) from Roth (Karlsruhe, Germany). N-dodecyl-β-D-maltopyranoside (DDM) was obtained from Sigma-Aldrich (Munich, Germany).
For Förster resonance energy transfer (FRET) measurements, equal concentrations of FL- and TAMRA-labeled GpA TM domains were used. Concentrations of the peptide stock solutions were determined from absorbance measurements on a Perkin Elmer Lambda 35 UV/VIS spectrophotometer. In all experiments, we used 0.25 µM for each of the two labeled GpA peptides. Peptides dissolved in TFE and A8-35 dissolved in ethanol were mixed, and organic solvents were removed under a gentle stream of nitrogen gas. Residual solvent traces were removed by vacuum desiccation overnight. The dried peptide/polymer film was then hydrated in 10 mM HEPES buffer (pH 7.4) containing 150 mM NaCl.
(§1) After at least 2 h of incubation at 37°C and 10 min of centrifugation at 16,000 g, steady-state fluorescence measurements were performed with the supernatant at 25°C on a Horiba Fluoromax 4 system with both excitation and emission slits at 3 nm. The excitation wavelength was set at 439 nm, and emission spectra were recorded from 480 to 650 nm. For FRET measurements with SDS, several concentrations of SDS, both below and above the CMC determined for the given buffer conditions, were used, and hydrated samples were incubated overnight.
(§2) Energy transfer E was calculated using the donor fluorescence intensities at 525 nm in presence and absence of acceptor according to [drawing 1] (1)
FD is the fluorescence intensity of the donor sample, and FDA is the fluorescence intensity of the sample containing donor and acceptor GpA TM domains at equal concentrations. The energy transfer of sequence-specific TM helix dimerization, ED, can be expressed as: [drawing 2] (2) where f D is the fraction of dimeric TM helices, P D is the probability of donor quenching when the peptides form a dimer, and E R is the energy transfer in the dimer.
The probability P D of donor quenching depends on the molar ratio of the acceptor peptides [drawing 3] , where [a] and [d] are the concentrations of acceptor and donor peptides, respectively. If the distance of the fluorophores in the dimer is much smaller than the Förster radius, as is the case here, ER can be taken as unity.
The fraction of dimers can be written as [drawing 4] , where [D] is the concentration of dimeric peptides and [T] the total peptide concentration.
The dissociation constant, K D, is given by [drawing 6] (4) where the monomer concentration is [drawing 7] .

human GpA TM domain [2] = biological target: T1, human GpA TM domain; assay: FRET at different acceptor mole ratios, stoichiometry of GpA TM domain association; type: binding; settings: constant total peptide, linear dependence, n = 2
Procedure: […] Concentrations of the peptide stock solutions were determined from absorbance measurements on a Perkin Elmer Lambda 35 UV/VIS spectrophotometer. […] Peptides dissolved in TFE and A8-35 dissolved in ethanol were mixed, and organic solvents were removed under a gentle stream of nitrogen gas. Residual solvent traces were removed by vacuum desiccation overnight. The dried peptide/polymer film was then hydrated in 10 mM HEPES buffer (pH 7.4) containing 150 mM NaCl.
as §1, §2
Besides formation of GpA dimers, the recorded energy transfer might, in principle, also originate from formation of higher-ordered oligomeric structures, such as trimers or tetramers, or even from unspecific peptide aggregation. […]

GpA TM helix dimer = settings: ref [24], listed as GpA dimer; cited from earlier work
Excerpt: Thermal denaturation of MPs often leads to irreversible aggregation of the MP, and guanidine hydrochloride and urea, which are frequently used in unfolding studies involving soluble proteins, do typically not denature the TM regions of MPs. This is why the thermodynamic stability of integral MPs within membrane-mimetic systems is often assessed by titrating increasing concentrations of the anionic detergent SDS to MPs dissolved in a mild detergent, such as DDM [24], [40]-[44]. SDS is able to form mixed micelles with other detergents typically used for MP solubilization. […] This indicates a strong destabilizati ...

Compound: CC[C@H](C)[C@H](NC(=O)CNC(=O)[C@H](Cc1ccc(O)cc1)NC(=O)[C@H](CO)NC(=O)[C@@H](NC(=O)[C@H](CC(C)C)NC(=O)[C@H](CC(C)C)NC(=O)[C@@H](NC(=O)[C@@H](NC(=O)CNC(=O)[C@@H](NC(=O)[C@@H](NC(=O)CNC(=O)[C@H](C)NC(=O)[C@H](CCSC)NC(=O)[C@@H](NC(=O)CNC(=O)[C@H](Cc1ccccc1)NC(=O)[C@@H](NC(=O)[C@@H](NC(=O)[C@H](CC(C)C)NC(=O)[C@@H](NC(=O)[C@@H](NC(=O)[C@H](CCC(=O)O)NC(=O)[C@@H]1CCCN1C(=O)[C@H](CCC(=O)O)NC(=O)[C@@H](N)CO)[C@@H](C)CC)[C@@H](C)O)[C@@H](C)CC)[C@@H](C)CC)C(C)C)C(C)C)[C@@H](C)CC)[C@@H](C)O)[C@@H](C)CC)[C@@H](C)CC)C(=O)N[C@@H](CCCNC(=N)N)C(=O)N[C@@H](CCCNC(=N)N)C(=O)N[C@@H](CC(C)C)C(=O)N[C@H](C(=O)N[C@@H](CCCCN)C(=O)N[C@@H](CCCCN)C(=O)O)[C@@H](C)CC [GpA TM domain]
- dimer fraction (human GpA TM domain [1]; 25 µM A8-35, FL- and TAMRA-labeled GpA 0.25 µM each, 10 mM HEPES pH 7.4, 150 mM NaCl, incubated at least 2 h at 37°C, measured at 25°C): about 0.65
- GpA dimer dissociation at relatively higher A8-35 concentrations (human GpA TM domain [1]; A8-35 range 5 to 75 µM, in contrast to detergents): do not seem to fully dissociate the GpA dimer
- dimer fraction (in words) (human GpA TM domain [1]; above 25 µM A8-35 (to 75 µM), FL- and TAMRA-labeled GpA 0.25 µM each): decreased only faintly with increasing polymer concentrations
- dimer fraction (in words) (human GpA TM domain [1]; low A8-35 concentrations (range 5 to 75 µM), FL- and TAMRA-labeled GpA 0.25 µM each): Almost all peptides were dimeric
- Kd (human GpA TM domain [1]; tested A8-35 range 5 to 75 µM, total labeled peptide 0.5 µM, 10 mM HEPES pH 7.4, 150 mM NaCl, 25°C, read-out: apparent dissociation constant K_D of GpA TM dimer): < 300 nM
- stoichiometry of association (energy transfer vs acceptor mole fraction) (human GpA TM domain [2]; 5 µM A8-35): exclusive dimer formation
- stoichiometry of association (energy transfer vs acceptor mole fraction) (human GpA TM domain [2]; 50 µM A8-35): exclusive dimer formation
- dissociation of GpA dimer in mixed DDM/SDS micelles (GpA TM helix dimer): completely unfolded
